Measured values from patent US8846698B2, “Pyrrolo[2,3-d]pyrimidine tropomysin-related kinase inhibitors” (Pfizer Limited, priority 2011, dated 2014).

molecular target: TRKA (Homo sapiens (Human), UniProt P04629); assay: Isolated TRK enzyme assay (HTRF KinEASE-TK), TRKA; format: biochemical; settings: read-out: Trka enzyme (IC50)
Sequence (P04629 441-796): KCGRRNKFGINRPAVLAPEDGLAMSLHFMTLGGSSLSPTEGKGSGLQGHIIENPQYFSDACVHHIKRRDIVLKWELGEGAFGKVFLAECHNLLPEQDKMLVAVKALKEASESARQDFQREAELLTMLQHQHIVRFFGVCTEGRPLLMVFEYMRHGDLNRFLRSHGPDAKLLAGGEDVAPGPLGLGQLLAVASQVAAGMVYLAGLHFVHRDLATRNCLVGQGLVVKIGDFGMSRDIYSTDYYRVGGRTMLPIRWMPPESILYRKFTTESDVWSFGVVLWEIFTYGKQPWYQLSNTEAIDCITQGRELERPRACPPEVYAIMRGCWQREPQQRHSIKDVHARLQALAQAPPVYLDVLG

IC50 [nM] | Compound
98.4 | CC1(n2cc(C(=O)c3cncc(NC(=O)Cc4ccc(Cl)cn4)c3)c3cncnc32)COC1 [Example 310, 2-(5-chloropyridin-2-yl)-N-(5-{[7-(3-methyloxetan-3-yl)-7H-pyrrolo[2,3-d]pyrimidin-5-yl]carbonyl}pyridin-3-yl)acetamide]
835 | CS(=O)(=O)Cn1cc(C(=O)c2cncc(NC(=O)Cc3ccc(Cl)cc3)c2)c2cncnc21 [Example 314, 2-(4-chlorophenyl)-N-[5-({7-[(methylsulfonyl)methyl]-7H-pyrrolo[2,3-d]pyrimidin-5-yl}carbonyl)pyridin-3-yl]acetamide]
188 | Cn1cc(C(=O)c2cncc(NC(=O)Cc3ccc(Cl)cc3)c2)c2cncnc21 [Example 319, 2-(4-chlorophenyl)-N-{5-[(7-methyl-7H-pyrrolo[2,3-d]pyrimidin-5-yl)carbonyl]pyridin-3-yl}acetamide]
3100 | Cc1cccc(CCC(=O)Nc2cncc(C(=O)c3cn(C)c4ncncc34)c2)c1 [Example 321, 3-(3-methylphenyl)-N-{5-[(7-methyl-7H-pyrrolo[2,3-d]pyrimidin-5-yl)carbonyl]pyridin-3-yl}propanamide]
9800 | Cn1cc(C(=O)c2cncc(NC(=O)CCc3cccnc3)c2)c2cncnc21 [Example 322, N-{5-[(7-methyl-7H-pyrrolo[2,3-d]pyrimidin-5-yl)carbonyl]pyridin-3-yl}-3-(pyridin-3-yl)propanamide]
2980 | Cc1ccccc1CCC(=O)Nc1cncc(C(=O)c2cn(C)c3ncncc23)c1 [Example 326, 3-(2-methylphenyl)-N-{5-[(7-methyl-7H-pyrrolo[2,3-d]pyrimidin-5-yl)carbonyl]pyridin-3-yl}propanamide]
3100 | Cn1cc(C(=O)c2cncc(NC(=O)CCc3ccccc3F)c2)c2cncnc21 [Example 327, 3-(2-fluorophenyl)-N-{5-[(7-methyl-7H-pyrrolo[2,3-d]pyrimidin-5-yl)carbonyl]pyridin-3-yl}propanamide]
3100 | Cn1cc(C(=O)c2cncc(NC(=O)CCc3ccc(F)cc3)c2)c2cncnc21 [Example 328, 3-(4-fluorophenyl)-N-{5-[(7-methyl-7H-pyrrolo[2,3-d]pyrimidin-5-yl)carbonyl]pyridin-3-yl}propanamide]
3100 | Cc1ccc(CCC(=O)Nc2cncc(C(=O)c3cn(C)c4ncncc34)c2)cc1 [Example 330, 3-(4-methylphenyl)-N-{5-[(7-methyl-7H-pyrrolo[2,3-d]pyrimidin-5-yl)carbonyl]pyridin-3-yl}propanamide]
9800 | COCc1ccc(CC(=O)Nc2cncc(C(=O)c3cn(C)c4ncncc34)c2)cc1 [Example 333, 2-[4-(methoxymethyl)phenyl]-N-{5-[(7-methyl-7H-pyrrolo[2,3-d]pyrimidin-5-yl)carbonyl]pyridin-3-yl}acetamide]
1550 | Cn1cc(C(=O)c2cncc(NC(=O)COc3ccc(F)cc3)c2)c2cncnc21 [Example 334, 2-(4-fluorophenoxy)-N-{5-[(7-methyl-7H-pyrrolo[2,3-d]pyrimidin-5-yl)carbonyl]pyridin-3-yl}acetamide]
155 | CC(C)n1cc(C(=O)c2cncc(NC(=O)COc3ccccc3C#N)c2)c2cncnc21 [Example 347, 2-(2-cyanophenoxy)-N-(5-{[7-(propan-2-yl)-7H-pyrrolo[2,3-d]pyrimidin-5-yl]carbonyl}pyridin-3-yl)acetamide]
21.1 | CC(C)(CO)n1cc(C(=O)c2cncc(NC(=O)Cc3ccc(C#N)cn3)c2)c2cnc(N)nc21 [Example 351, N-{5-[2-Amino-7-(2-hydroxy-1,1-dimethyl-ethyl)-7H-pyrrolo[2,3-d]pyrimidine-5-carbonyl]-pyridin-3-yl}-2-(5-cyano-pyridin-2-yl)-acetamide]

The remaining lines, values behind:

Compound | IC50 [nM]
CC1(n2cc(C(=O)c3cncc(NC(=O)Cn4ccc(C(F)(F)F)n4)c3)c3cncnc32)COC1 [Example 311, N-(5-{[7-(3-methyloxetan-3-yl)-7H-pyrrolo[2,3-d]pyrimidin-5-yl]carbonyl}pyridin-3-yl)-2-[3-(trifluoromethyl)-1H-pyrazol-1-yl]acetamide] | 238
CC1(n2cc(C(=O)c3cncc(NC(=O)Cn4cc(C(F)(F)F)nn4)c3)c3cncnc32)COC1 [Example 312, N-(5-{[7-(3-methyloxetan-3-yl)-7H-pyrrolo[2,3-d]pyrimidin-5-yl]carbonyl}pyridin-3-yl)-2-[4-(trifluoromethyl)-1H-1,2,3-triazol-1-yl]acetamide] | 166
CC(C)n1cc(C(=O)c2cncc(NC(=O)Cc3cnn(C4CC4)c3C(F)(F)F)c2)c2cncnc21 [Example 315, 2-(1-Cyclopropyl-5-trifluoromethyl-1H-pyrazol-4-yl)-N-[5-(7-isopropyl-7H-pyrrolo[2,3-d]pyrimidine-5-carbonyl)-pyridin-3-yl]-acetamide] | 39.1
Cn1cc(C(=O)c2cncc(NC(=O)CCc3ccc(Cl)cc3)c2)c2cncnc21 [Example 320, 3-(4-chlorophenyl)-N-{5-[(7-methyl-7H-pyrrolo[2,3-d]pyrimidin-5-yl)carbonyl]pyridin-3-yl}propanamide] | 3100
Cn1cc(C(=O)c2cncc(NC(=O)CCc3cccc(Cl)c3)c2)c2cncnc21 [Example 323, 3-(3-chlorophenyl)-N-{5-[(7-methyl-7H-pyrrolo[2,3-d]pyrimidin-5-yl)carbonyl]pyridin-3-yl}propanamide] | 3100
Cn1cc(C(=O)c2cncc(NC(=O)CCc3cccc(F)c3)c2)c2cncnc21 [Example 324, 3-(3-fluorophenyl)-N-{5-[(7-methyl-7H-pyrrolo[2,3-d]pyrimidin-5-yl)carbonyl]pyridin-3-yl}propanamide] | 3100
Cn1cc(C(=O)c2cncc(NC(=O)COc3ccccc3OC(F)(F)F)c2)c2cncnc21 [Example 325, N-{5-[(7-methyl-7H-pyrrolo[2,3-d]pyrimidin-5-yl)carbonyl]pyridin-3-yl}-2-[2-(trifluoromethoxy)phenoxy]acetamide] | 111
Cn1cc(C(=O)c2cncc(NC(=O)CCc3ccccc3)c2)c2cncnc21 [Example 329, N-{5-[(7-methyl-7H-pyrrolo[2,3-d]pyrimidin-5-yl)carbonyl]pyridin-3-yl}-3-phenylpropanamide] | 9810
Cn1cc(C(=O)c2cncc(NC(=O)Cc3ccc(NS(=O)(=O)C(F)(F)F)cc3)c2)c2cncnc21 [Example 331, N-{5-[(7-methyl-7H-pyrrolo[2,3-d]pyrimidin-5-yl)carbonyl]pyridin-3-yl}-2-(4-{[(trifluoromethyl)sulfonyl]amino}phenyl)acetamide] | 9810
Cn1cc(C(=O)c2cncc(NC(=O)COc3ccccc3)c2)c2cncnc21 [Example 332, N-{5-[(7-methyl-7H-pyrrolo[2,3-d]pyrimidin-5-yl)carbonyl]pyridin-3-yl}-2-phenoxyacetamide] | 2180
Cn1cc(C(=O)c2cncc(NC(=O)C3(c4ccccc4)CC3)c2)c2cncnc21 [Example 336, N-{5-[(7-methyl-7H-pyrrolo[2,3-d]pyrimidin-5-yl)carbonyl]pyridin-3-yl}-1-phenylcyclopropanecarboxamide] | 9800
Cn1cc(C(=O)c2cncc(NC(=O)C3Cc4ccccc4C3)c2)c2cncnc21 [Example 337, N-{5-[(7-methyl-7H-pyrrolo[2,3-d]pyrimidin-5-yl)carbonyl]pyridin-3-yl}indane-2-carboxamide] | 4280
C[C@@H](C(=O)Nc1cncc(C(=O)c2cn(C)c3ncncc23)c1)c1ccccc1 [Example 338, (2R)—N-{5-[(7-methyl-7H-pyrrolo[2,3-d]pyrimidin-5-yl)carbonyl]pyridin-3-yl}-2-phenylpropanamide] | 2730
CC(C)n1cc(C(=O)c2cncc(NC(=O)C(CO)c3ccccc3)c2)c2cncnc21 (centres unmarked) [Example 339, 3-hydroxy-2-phenyl-N-(5-{[7-(propan-2-yl)-7H-pyrrolo[2,3-d]pyrimidin-5-yl]carbonyl}pyridin-3-yl)propanamide] | 251
COc1ccc2c(ccn2CC(=O)Nc2cncc(C(=O)c3cn(C(C)C)c4ncncc34)c2)c1 [Example 340, N-{5-[(7-isopropyl-7H-pyrrolo[2,3-d]pyrimidin-5-yl)carbonyl]-pyridin-3-yl}-2-(5-methoxy-1H-indol-1-yl)acetamide] | 451
CC(C)n1cc(C(=O)c2cncc(NC(=O)c3cccc(Cl)c3)c2)c2cncnc21 [Example 343, 3-chloro-N-(5-{[7-(propan-2-yl)-7H-pyrrolo[2,3-d]pyrimidin-5-yl]carbonyl}pyridin-3-yl)benzamide] | 53.9
CC(C)n1cc(C(=O)c2cncc(NC(=O)c3ccc(Cl)cc3)c2)c2cncnc21 [Example 344, 4-chloro-N-(5-{[7-(propan-2-yl)-7H-pyrrolo[2,3-d]pyrimidin-5-yl]carbonyl}pyridin-3-yl)benzamide] | 326
CC(C)n1cc(C(=O)c2cncc(NC(=O)c3ccc(C(F)(F)F)cc3)c2)c2cncnc21 [Example 345, N-(5-{[7-(propan-2-yl)-7H-pyrrolo[2,3-d]pyrimidin-5-yl]carbonyl}pyridin-3-yl)-4-(trifluoromethyl)benzamide] | 362
CC(C)n1cc(C(=O)c2cncc(NC(=O)c3ccc(OC(F)(F)F)cc3)c2)c2cncnc21 [Example 346, N-(5-{[7-(propan-2-yl)-7H-pyrrolo[2,3-d]pyrimidin-5-yl]carbonyl}pyridin-3-yl)-4-(trifluoromethoxy)benzamide] | 253
CC(C)n1cc(C(=O)c2cncc(NC(=O)COc3ccc(OC(F)(F)F)cc3)c2)c2cncnc21 [Example 348, N-(5-{[7-(propan-2-yl)-7H-pyrrolo[2,3-d]pyrimidin-5-yl]carbonyl}pyridin-3-yl)-2-[4-(trifluoromethoxy)phenoxy]acetamide] | 36.6
CC(C)n1cc(C(=O)c2cncc(NC(=O)C(N)c3ccc(Cl)cc3)c2)c2cncnc21 (centres unmarked) [Example 350, 2-amino-2-(4-chlorophenyl)-N-(5-(7-isopropyl-7H-pyrrolo[2,3-d]pyrimidine-5-carbonyl)pyridin-3-yl)acetamide] | 153
CC(C)n1cc(C(=O)c2cncc(NC(=O)Cc3cn(C4CC4)nc3C(F)(F)F)c2)c2cncnc21 [Example 352, 2-(1-Cyclopropyl-3-trifluoromethyl-1H-pyrazol-4-yl)-N-[5-(7-isopropyl-7H-pyrrolo[2,3-d]pyrimidine-5-carbonyl)-pyridin-3-yl]-acetamide] | 62.6
